This note sets out measurements from ChEMBL document CHEMBL3585309, “Peroxisome Proliferator-Activated Receptor γ (PPARγ) and Ligand Choreography: Newcomers Take the Stage” (J Med Chem, 2015).

The target in experiment [1] is T1, Peroxisome proliferator-activated receptor gamma (Homo sapiens, UniProt P37231).
T1 sequence (P37231 whole entry): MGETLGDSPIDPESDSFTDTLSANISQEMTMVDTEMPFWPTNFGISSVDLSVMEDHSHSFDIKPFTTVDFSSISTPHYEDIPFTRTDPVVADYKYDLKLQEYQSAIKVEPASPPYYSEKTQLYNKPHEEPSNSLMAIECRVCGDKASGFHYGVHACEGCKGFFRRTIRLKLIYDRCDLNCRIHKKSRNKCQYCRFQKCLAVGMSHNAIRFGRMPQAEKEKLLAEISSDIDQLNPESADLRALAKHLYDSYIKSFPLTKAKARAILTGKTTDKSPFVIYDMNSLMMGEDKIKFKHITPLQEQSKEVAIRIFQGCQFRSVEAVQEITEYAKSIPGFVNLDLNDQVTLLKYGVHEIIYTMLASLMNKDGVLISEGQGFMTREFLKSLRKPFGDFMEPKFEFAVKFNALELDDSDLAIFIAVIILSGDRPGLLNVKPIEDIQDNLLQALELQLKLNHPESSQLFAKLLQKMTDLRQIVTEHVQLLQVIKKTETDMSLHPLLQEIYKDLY
Kind of experiment: Activity at PPARgamma (unknown origin) assessed as transactivation activity by reporter gene assay. (A reporter such as luciferase makes a cellular process visible.)

Experiment [2] concerns the target T2, Peroxisome proliferator-activated receptor gamma (Homo sapiens) (UniProt P37231).
T2 sequence (whole entry): T1 sequence (P37231 whole entry)
Kind of experiment: Activity at PPARgamma (unknown origin) assessed as transactivation activity by reporter gene assay relative to rosiglitazone.

Experiment [3] addresses T2, Peroxisome proliferator-activated receptor gamma (Homo sapiens). Nature of the experiment: Activity at human full length PPARgamma transfected in COS7 cells assessed as transactivation activity by reporter gene assay relative to rosiglitazone. Type of experiment: cell-based. The following applies: COS-7.
Experiment [4] concerns the target T1, Peroxisome proliferator-activated receptor gamma. Kind of experiment: Activity at human PPARgamma transfected in HEK293 cells assessed as transactivation activity after 24 hrs by Dual-luciferase reporter gene assay relative to rosiglitazone. Type of experiment: cell-based.
Experiment [5] has as its target T2, Peroxisome proliferator-activated receptor gamma (Homo sapiens). Nature of the experiment: Activity at PPARgamma (unknown origin) transfected in 293T cells assessed as transactivation activity after 24 hrs by PPRE-TK- luciferase reporter gene assay relative to rosiglitazone. Type of experiment: cell-based.
For experiment [6] the target is unchanged. Nature of the experiment: Activity at human full length PPARgamma LBD transfected in COS7 cells assessed as transactivation activity by reporter gene assay relative to rosiglitazone. Type of experiment: cell-based. The following applies: COS-7.
Experiment [7] deals with T1, Peroxisome proliferator-activated receptor gamma. Nature of the experiment: Activity at human PPARgamma transfected in HEK293 cells assessed as transactivation activity by luciferase reporter gene assay. Type of experiment: cell-based.
Experiment [8] shares this target. Nature of the experiment: Activity at full length human PPARgamma transfected in CV1 cells assessed as transactivation activity after 24 hrs by PPRE-TK- luciferase reporter gene assay. Type of experiment: cell-based, CV-1.
Experiment [9] concerns the target T2, Peroxisome proliferator-activated receptor gamma (Homo sapiens). Kind of experiment: Activity at full length human PPARgamma transfected in CV1 cells assessed as transactivation activity after 24 hrs by PPRE-TK- luciferase reporter gene assay relative to rosiglitazone. Type of experiment: cell-based. The following applies: CV-1.

In general, EC50 refers to the midpoint of the concentration-response curve. For the compound `CC[C@@H](OC(=O)N(Cc1ccccc1)C(=O)Nc1cc(OC)cc(OC)c1)c1cc(-c2ccc(OC(C)(C)C(=O)O)cc2)no1`, in experiment [1] (read-out: EC50), the concentration giving a half-maximal response (EC50) is 0.38 nM. The %max in [2] was found to be 70%.

In the case of `CC[C@H](OC(=O)N(Cc1ccccc1)C(=O)Nc1cc(OC)cc(OC)c1)c1cc(-c2ccc(OC(C)(C)C(=O)O)cc2)no1`, the 50% effective concentration (EC50) in experiment [1] (read-out: EC50) was 183 nM. In addition, the %max in experiment [2] came to 60%.

In the case of `Cc1c(C)n(Cc2ccc(-c3ccccc3C(=O)O)cc2)c2ccc(C(=O)N[C@@H](C)c3ccc([N+](=O)[O-])cc3)cc12`, the EC50 result in [1] was “Not Active”.

For `CCCCCCCCCC(=O)O`, in experiment [3], the %max was 60%.

For the compound `Cc1c(C)n(Cc2ccc(-c3ccccc3C(=O)O)cc2)c2ccc(C(=O)NCc3cccnc3)cc12`, in experiment [4], the EC50 entry is on record as “Not Active”.

Turning to `C[C@@H]1O[C@@H](O[C@@H]2[C@H](O[C@H]3C[C@]4(C)[C@H](C[C@@H](O)[C@@H]5[C@@](C)([C@]6(C)CC[C@H](C(C)(C)O)O6)CC[C@]54C)[C@@]4(C)CC[C@H](O)C(C)(C)[C@H]34)O[C@H](CO)[C@@H](O)[C@@H]2O)[C@H](O)[C@H](O)[C@H]1O`, in experiment [5], the %max was 30%.

Take `C[C@H](CCC(=O)O)C[C@H](C)C[C@H](C)C(=O)/C=C(\O)[C@H](C)C[C@H](C)C/C=C/[C@@H](C)[C@@H](O)[C@@H](C)[C@@H](O)C[C@@H]1CC[C@@](C)([C@H]2CC[C@@](C)([C@@H](C)O)O2)O1`: in experiment [6], the %max was 35%.

Consider `Cc1oc(-c2ccccc2)nc1CCOc1ccc(C[C@@H](NC(=O)/C=C/c2ccco2)C(=O)O)cc1`, for which the 50% effective concentration (EC50) in experiment [7] was 155 nM.

For `CCCc1nc2c(C)cc(-c3nc4ccccc4n3C)cc2n1Cc1ccc(-c2ccccc2C(=O)O)cc1`, the EC50 in [8] amounted to 4500 nM. In addition, the %max in experiment [9] stood at 30%.
